# Assay results: paper PMC8765437, “GSK3640254 Is a Novel HIV-1 Maturation Inhibitor with an Optimized Virology Profile” (Antimicrobial Agents and Chemotherapy, 2022)
# pEC50: −log10 of the molar value. Read-outs that look alike come from different tables or passages of the source.
# Assays:
# HIV-2 strains [1] = assay: HIV-2 strains, luciferase activity in CEM-NKR-CCR5-Luc cells; type: cell-based
# Method: (§1) Virus yields were measured in dose-response experiments by either luciferase activity in human T-cells (CEM-NKR-CCR5-Luc), extracellular reverse transcriptase activity in MT-2 cells (T-tropic viruses), or extracellular p24 antigen in PM1 cells (M-tropic viruses).
# (§2) Multiple-cycle assays using recombinant viruses or clinical isolates were used to assess MI antiviral activity as described previously ([10]). pNLRepRlucP373S (the P373S change is in the Gag gene and converts an outlier polymorphism in the NL4-3 gene to the prevalent amino acid in the population) plasmids containing SDMs in Gag or gag/pr regions from clinical isolates were transfected into HEK 293T cells, and the supernatant containing recombinant virus was harvested after 4 to 5 days. Virus was used to infect MT-2 cells in the presence of a 3-fold serially diluted compound at a final dimethyl sulfoxide (DMSO) concentration of 1%. The inocula of the reporter viruses were determined based on the luciferase activity detected on day 4 postinfection. […] Virus growth was determined on days 4 to 5 postinfection for reporter variants or days 5 to 11 for the other viruses. The reporter viruses were detected by a luciferase assay according to manufacturer protocols (Brite-Glo luciferase kit [Promega] for CEM-NKR-CCR5-Luc cells and Dual-Luciferase Reporter 1000 assay system [Promega] for the other cells), and luminescence was detected on a Wallac Trilux. The growth of clinical isolates in PBMCs was quantitated by reverse transcriptase activity in a 96-well scintillation proximity assay (SPA). […] Luminescence was detected on a Wallac Trilux programmed for tritium counting with SPA beads in opaque plates. The growth of the reporter-free laboratory M-tropic strains and clinical isolates was monitored by a p24 enzyme-linked immunosorbent assay (ELISA; PerkinElmer Life Sciences, Waltham, MA) performed on culture supernatants.
# (§3) Maximal percent inhibition values were calculated as MPI = 100 – (mean signals at the 2 highest concentrations of compound/mean signal of 2 no-drug control wells) × 100.
# HIV-1 clinical isolates = assay: Inhibition of clinical isolates in PBMCs; type: cell-based; conditions: Human immunodeficiency virus 1, PBMC
# Method: Human peripheral blood mononuclear cells (PBMCs) were infected with isolates, and virus yields were measured by determining extracellular p24 protein levels (Table 4). […] These isolates were also examined in the NLRepRlucP373S virus by replacement of the gag/pr genes with those from these clinical isolates.
# Peripheral blood mononuclear cells (BioReclamation, Westbury, NY) were cultured at 37°C and 5% CO2 in RPMI 1640 medium with 20% fetal bovine serum (Gibco Laboratories), 100 units/mL of penicillin G, 100 units/mL of streptomycin (Gibco Laboratories), and 1 ng/mL of recombinant human interleukin-2 (Invitrogen, Carlsbad, CA). Peripheral blood mononuclear cells were stimulated with 2 μg/mL of phytohemagglutinin (Sigma-Aldrich, St. Louis, MO) for 2 days before infection with HIV-1 clinical isolates.
# Multiple-cycle assays using recombinant viruses or clinical isolates were used to assess MI antiviral activity as described previously ([10]). pNLRepRlucP373S (the P373S change is in the Gag gene and converts an outlier polymorphism in the NL4-3 gene to the prevalent amino acid in the population) plasmids containing SDMs in Gag or gag/pr regions from clinical isolates were transfected into HEK 293T cells, and the supernatant containing recombinant virus was harvested after 4 to 5 days. Virus was used to infect MT-2 cells in the presence of a 3-fold serially diluted compound at a final dimethyl sulfoxide (DMSO) concentration of 1%. The inocula of the reporter viruses were determined based on the luciferase activity detected on day 4 postinfection. The MOI (ratio of infectious virions to target cells) of reporter-free laboratory strains and clinical isolates was 0.005, as derived from a tissue culture infectious dose study. Clinical isolates or reporter-free viruses were examined in the reporter CEM-NKR-CCR5-Luc cells or PBMCs at MOIs ranging from 0.005 to 0.01. Each infection started with a drug-free preincubation of the cell-virus mixtures, performed at 37°C and 5% CO2 for either 1 h at 2 times the final cell density (reporter viruses) or 1 h (reporter-free laboratory strains) or 3 h (clinical isolates) using cell pellets in 0.5 mL of medium. After preincubation, cell-virus mixtures were added to compound-containing 96-well plates for a final cell density of either 10,000 (MT-2 cells for reporter viruses), 20,000 (MT-2 and PM1 cells for reporter-free laboratory strains), 200,000 (PBMCs for clinical isolates), or 500,000 (CEM-NKR-CCR5-Luc for reporter-free laboratory strains) cells per well. The CEM-NKR-CCR5-Luc cell assay was performed in the presence of Polybrene (10 μg/mL). Virus growth was determined on days 4 to 5 postinfection for reporter variants or days 5 to 11 for the other viruses. The reporter viruses were detected by a luciferase assay according to manufacturer protocols (Brite-Glo luciferase kit [Promega] for CEM-NKR-CCR5-Luc cells and Dual-Luciferase Reporter 1000 assay system [Promega] for the other cells), and luminescence was detected on a Wallac Trilux. The growth of clinical isolates in PBMCs was quantitated by reverse transcriptase activity in a 96-well scintillation proximity assay (SPA). Twenty microliters of culture supernatants was mixed with 40 μL of reaction cocktail (62.5 mM Tris-HCl [pH 7.8], 100 mM KCl, 0.0625% NP-40, 2.5 mM dithiothreitol [DTT], 6.25 mM MgCl2, 1 mM EGTA, 6.25 μg/mL of poly rA, 2.5 μg/mL of streptavidin SPA beads prebound with biotinylated-dT12-18, and 1 μCi of [^3H]TTP). Mixtures were incubated at 37°C for ∼3 h and quenched with 100 μl of 0.25 M EDTA per well. Luminescence was detected on a Wallac Trilux programmed for tritium counting with SPA beads in opaque plates. The growth of the reporter-free laboratory M-tropic strains and clinical isolates was monitored by a p24 enzyme-linked immunosorbent assay (ELISA; PerkinElmer Life Sciences, Waltham, MA) performed on culture supernatants.
# HIV-1 M tropic strains = assay: M-tropic laboratory strains, extracellular p24 antigen in PM1 cells; type: cell-based
# Method: as §1
# as §2, with “postinfection. The MOI (ratio of infectious virions to target cells) of reporter-free laboratory strains and clinical isolates was 0.005, as derived from a tissue culture infectious dose study. Clinical isolates or reporter-free viruses were examined in the reporter CEM-NKR-CCR5-Luc cells or PBMCs at MOIs ranging from 0.005 to 0.01. Each infection started with a drug-free preincubation of the cell-virus mixtures, performed at 37°C and 5% CO2 for either 1 h at 2 times the final cell density (reporter viruses) or 1 h (reporter-free laboratory strains) or 3 h (clinical isolates) using cell pellets in 0.5 mL of medium.” for “postinfection.”
# as §3
# [2] = tested on: RepRlucNL4-3GagP373S variants; assay: Virus breakthrough in MT-2 cell culture in the presence of compound; type: cell-based, HIV-1; conditions: for Days to virus breakthrough, Expt 1 / Days to virus breakthrough, Expt 2: drug 80 nM
# Method: The ability of virus to break through and grow in the presence of an inhibitory concentration of a compound in cell culture provides an indication of its resistance barrier. […] Experiments were performed in duplicate at a low or high MOI (0.005 and 0.05) and at a drug concentration of 80 nM with RepRlucP373S WT virus or SDM-containing virus with known Gag polymorphisms (Table 6).
# Cultures were incubated at 37°C and 5% CO2 until ∼100% cytopathic effect (CPE) was observed. […] At each passage, 100 μL of culture supernatant was collected and stored at −20°C. When a culture reached 100% CPE, it was terminated, and supernatants were harvested for subsequent virus population sequencing.
# HIV-2 strains [3] = assay: HIV-2 strains, reverse transcriptase activity in MT-2 cells; type: cell-based
# Method: as §1
# as §2, with “postinfection. The MOI (ratio of infectious virions to target cells) of reporter-free laboratory strains and clinical isolates was 0.005, as derived from a tissue culture infectious dose study. Clinical isolates or reporter-free viruses were examined in the reporter CEM-NKR-CCR5-Luc cells or PBMCs at MOIs ranging from 0.005 to 0.01. Each infection started with a drug-free preincubation of the cell-virus mixtures, performed at 37°C and 5% CO2 for either 1 h at 2 times the final cell density (reporter viruses) or 1 h (reporter-free laboratory strains) or 3 h (clinical isolates) using cell pellets in 0.5 mL of medium.” for “postinfection.”
# as §3
structure (smiles),measurement,setting,value
C=C(C)[C@@H]1CC[C@]2(NCCN3CCS(=O)(=O)CC3)CC[C@]3(C)[C@H](CC[C@@H]4[C@@]5(C)CC=C(C6=CC[C@@](CF)(C(=O)O)CC6)C(C)(C)[C@@H]5CC[C@]43C)[C@@H]12 [GSK’254],pEC50,"HIV-2 strains [1]; Human immunodeficiency virus 2, HIV-2 287",5.90
same,pEC50,"HIV-2 strains [1]; Human immunodeficiency virus 2, HIV-2 ROD, first value in cell",< 5.52
same,pEC50,"HIV-1 clinical isolates; read-out: Mean EC50, subtype A 92UG037",8.30
same,pEC50,"HIV-1 clinical isolates; read-out: Mean EC50, subtype A 93RW029",8.52
same,pEC50,"HIV-1 clinical isolates; read-out: Mean EC50, subtype A 93RW034",9.00
same,pEC50,"HIV-1 clinical isolates; read-out: Mean EC50, subtype AE 93TH023",9.00
same,pEC50,"HIV-1 clinical isolates; read-out: Mean EC50, subtype AE 93TH053",8.30
same,pEC50,"HIV-1 clinical isolates; read-out: Mean EC50, subtype AE CMU010",8.52
same,pEC50,"HIV-1 clinical isolates; read-out: Mean EC50, subtype B 92BR003",8.70
same,pEC50,"HIV-1 clinical isolates; read-out: Mean EC50, subtype B 92BR018",7.11
same,pEC50,"HIV-1 clinical isolates; read-out: Mean EC50, subtype B 93BR008",7.30
same,pEC50,"HIV-1 clinical isolates; read-out: Mean EC50, subtype B 93BR009",9.00
same,pEC50,"HIV-1 clinical isolates; read-out: Mean EC50, subtype B 93BR013",8.52
same,pEC50,"HIV-1 clinical isolates; read-out: Mean EC50, subtype B 93BR017",9.00
same,pEC50,"HIV-1 clinical isolates; read-out: Mean EC50, subtype B 93US143",8.70
same,pEC50,"HIV-1 clinical isolates; read-out: Mean EC50, subtype C 93MW960",8.05
same,pEC50,"HIV-1 clinical isolates; read-out: Mean EC50, subtype C 97ZA012",8.52
same,pEC50,"HIV-1 clinical isolates; read-out: Mean EC50, subtype C 98BR004",9.00
same,pEC50,"HIV-1 clinical isolates; read-out: Mean EC50, subtype C 10215-6",9.00
same,pEC50,"HIV-1 clinical isolates; read-out: Mean EC50, subtype C 20706-3",8.40
same,pEC50,"HIV-1 clinical isolates; read-out: Mean EC50, subtype C MJ4",8.52
same,pEC50,"HIV-1 clinical isolates; read-out: mean EC50, subtype A/AE isolates",8.52
same,pEC50,"HIV-1 clinical isolates; read-out: mean EC50, subtype B isolates",7.72
same,pEC50,"HIV-1 clinical isolates; read-out: mean EC50, subtype C isolates",8.46
same,pEC50,"HIV-1 M tropic strains; Human immunodeficiency virus 1, PM1, Bal",8.96
same,pEC50,"HIV-1 M tropic strains; Human immunodeficiency virus 1, PM1, JRFL",8.92
same,"Days to virus breakthrough, Expt 1","[2]; High MOI (0.05), V362I",11 days
same,"Days to virus breakthrough, Expt 2","[2]; High MOI (0.05), V362I",11 days
same,"Days to virus breakthrough, Expt 1","[2]; High MOI (0.05), V370A",>46 days
same,"Days to virus breakthrough, Expt 2","[2]; High MOI (0.05), V370A",>46 days
same,"Days to virus breakthrough, Expt 1","[2]; High MOI (0.05), V370M",21 days
same,"Days to virus breakthrough, Expt 2","[2]; High MOI (0.05), V370M",11 days
same,"Days to virus breakthrough, Expt 1","[2]; High MOI (0.05), Wild type",>46 days
same,"Days to virus breakthrough, Expt 2","[2]; High MOI (0.05), Wild type",18 days
same,"Days to virus breakthrough, Expt 1","[2]; Low MOI (0.005), V362I",46 days
same,"Days to virus breakthrough, Expt 2","[2]; Low MOI (0.005), V362I",>46 days
same,"Days to virus breakthrough, Expt 1","[2]; Low MOI (0.005), V370A",>46 days
same,"Days to virus breakthrough, Expt 2","[2]; Low MOI (0.005), V370A",11 days
same,"Days to virus breakthrough, Expt 1","[2]; Low MOI (0.005), V370M",>46 days
same,"Days to virus breakthrough, Expt 2","[2]; Low MOI (0.005), V370M",18 days
same,"Days to virus breakthrough, Expt 1","[2]; Low MOI (0.005), Wild type",14 days
same,"Days to virus breakthrough, Expt 2","[2]; Low MOI (0.005), Wild type",>46 days
same,samples exhibiting breakthrough,"[2]; low and high MOIs, 80 nM, over the 46-day experiment",9 of 16
same,pEC50,"HIV-2 strains [3]; Human immunodeficiency virus 2, MT2, HIV-2 287",< 5.86
same,pEC50,"HIV-2 strains [3]; Human immunodeficiency virus 2, MT2, HIV-2 ROD, second value in cell",8.60
